The values that follow come from patent US20250332081A1, “A Composition Against Osmotic Stress” (ELC Management LLC, priority 2022, published 2025).

Structures are written as SMILES.

The test has as its system Normal Human Epidermal Keratinocytes (NHEK). As to the kind of experiment: Hyper-osmotic stress model in NHEKs: cell protection (alamarBlue viability) and combination index. Type of test: cell-based. The conditions noted are these: 48 hrs, hyper-osmotic stress 450 mOsm. The procedure: 1.2 g betaine (RDS 51-6709) was dissolved in 100 ml water with magnetic stirring for complete dissolution (Stock concentration 1.2%). 0.5 g Roselle extract (Hibiscus Sabdariffa Extract, Lucas Meyer Cosmetics Company) was dissolved in 10 mL water to achieve 5% stock solution. Then the solutions were filtrated with 0.22 um filter to keep sterile.
Normal Human Epidermal Keratinocytes (NHEK, FC-0007) purchased from Lifeline Cell Technology were incubated at 37° C., 95% humidity and 5% CO2 in keratinocyte cell culture medium (DermaLife K Keratinocyte Medium Complete Kit, LL-0007, Lifeline cell technology) supplemented with growth factors and 1% Penicillin/Streptomycin (Thermo Fischer, Waltham, MA, USA). Cells were passaged upon reaching 80% confluency.
NHEKs were plated in 96-well plates at 4,000/well density. After 24 h of incubation, the cells would have reached ˜80% confluency. 4.38 mg/mL NaCL was added in the culture media to achieve 450 osmolarity, on top of a baseline ˜300 mOsm.
On day 1, NHEKs were seeded with culture medium (DermaLife K Keratinocyte Medium Complete Kit) in a 96-well plate at 3,000 cells/well. After 24 h adherence, a 2-active combination experiment was carried out in vitro. 21 data points were used for dose and effect, including 4 concentrations for betaine, 7 concentrations for roselle extract and their combination as below (Table 1). Cells were treated with the combination of these actives for 48 hrs (Separately diluted with cell culture medium, followed by mixing together to treat cells). Then cells were washed with Dulbecco's phosphate buffered saline (DPBS) twice, and then incubated in medium with 10% alamarBlue™ Cell Viability Reagent (Thermo Fisher, Waltham, MA, USA) for 120 minutes. The incubated plates were measured for fluorescence using a Perkin Elmer plate reader (VICTOR Nivo), at Ex 530 nm/Em 615 nm. The value are recorded as RFU value.
The protective effect can be determined by Cell viability ratio (%) and Cell protection rate (%) as follows.
According to the theory proposed by Chou and Talalay (TING-CHAO CHOU. Theoretical Basis, Experimental Design, and Computerized Simulation of Synergism and Antagonism in Drug Combination Studies. Pharmacol Rev 58:621-681, 2006), the level of synergism can be typically measured and quantified by the drug combination index (CI, a quantitative measure of drug combination effects) from experimental dose-response data. The concentration of each compound, the protection ratio of each compound or the combo of these two compounds data were input into computer for automated analysis using CalcuSyn software. […]
Experiments were conducted at four levels of betaine and seven levels of roselle extract. […] Synergy value is classified based on the calculated combination index.
(In general: Alamar Blue is a resazurin reagent that responds to reducing activity.)

With `C[N+](C)(C)CC(=O)[O-]` [Betaine, trimethylglycine], the “Protective Ratio (%)” value is 8.924% (betaine 0.03% alone), 19.658% (betaine 0.06% alone), 15.259% (betaine 0.09% alone) and 17.451% (betaine 0.1% alone).
